# Source: PubChem BioAssay AID1996
# Details: buffer; pH 7.4; 200.0 µM
row,solubility kinetic [µg/mL],SMILES
1,> 49.1,CCOc1ccccc1N1CN(Cc2ccccc2)CNC1=S
2,34.2,Cc1ccc2[nH]cc(CCNC(=O)C3CCCCC3)c2c1
3,> 39.4,CC1CCCCN1C(=S)NC(=O)c1ccccc1 (centres undefined)
4,4.7,CCCCOc1ccc(C(=O)NCC(=O)NC2CCCCC2)cc1
5,38.4,CCC(=O)Nc1ccc2oc(-c3cccnc3)nc2c1
6,> 39.2,COCCCNC(=O)/C(C#N)=C/c1cc(C)[nH]c1C
7,45.7,CCC(=O)Nc1c(-c2ccc3ccccc3c2)nc2ccccn12
8,> 41.3,O=C(N/N=C/c1cccc2ccccc12)c1cccnc1
9,8.4,COc1ccc(NC(=O)C2CCCN(S(C)(=O)=O)C2)cc1Cl (centres undefined)
10,12.2,Cc1ccc(NC(=S)Nc2ccc(F)cc2)cc1C
11,> 48.2,CC(C)(C)C(=O)Nc1ccccc1-c1nc2ccccc2[nH]c1=O
12,0.8,CC(=O)Nc1ccc(NC(=O)C(c2ccccc2)c2ccccc2)cc1
13,< 0.3,O=C(Nc1nc2ccsc2c(=O)s1)c1ccc(Cl)cc1
14,> 51,N#CC(C#N)=C/C=C(\Nc1ccc(Cl)cc1)c1ccc(Cl)cc1
15,8,CC(=O)COC(=O)c1ccc2noc(-c3ccccc3)c2c1
16,31.5,COc1ccc(NC(=O)C2CC3CCC2C3)c(OC)c1 (centres undefined)
17,> 47.5,O=C(NNC(=O)C12CC3CC(CC(C3)C1)C2)c1ccccc1F
18,36.9,C#Cc1ccc(CN2CCN(CCCc3ccccc3)C(CCO)C2)cc1 (centres undefined)
19,39.3,Cc1ccc2c(C(=O)CN3CCCC(C)C3)c(C)[nH]c2c1 (centres undefined)
20,> 50.5,NS(=O)(=O)c1ccc(NC(=O)C2C3C=CC(C3)C2C(=O)O)cc1 (centres undefined)
21,5.7,O=C(Nc1ccc(Br)cn1)c1cccc(S(=O)(=O)N2CCCC2)c1
22,39.4,CC(C)(C)C1CCc2c(sc3nc(SCC(=O)O)nc(N)c23)C1 (centres undefined)
23,> 42.5,CCOc1ccc(CC(=O)N/N=C/c2cccnc2)cc1

# The remaining lines, values behind:
row,SMILES,solubility kinetic [µg/mL]
1,Cc1nc2c(ncn2-c2ccccc2)c(=O)n1NC(=O)CN1CCCC1,> 52.9
2,COc1cc(OC)cc(C(=O)NCC(=O)N2CCN(Cc3ccccc3)CC2)c1,> 59.6
3,COc1ccc(C2CC(C)=C(C#N)S(=O)(=O)C2C#N)cc1 (centres undefined),> 45.4
4,Cc1ccc(S(=O)(=O)N2CCCCC2)cc1NC(=O)CCNC(=O)c1ccccc1,9.4
5,CN1CCN(CC(C)(C)NS(=O)(=O)c2ccccc2)CC1,> 46.7
6,O=C(NCc1ccccc1F)C1CCCN1C(=O)Nc1ccccc1 (centres undefined),> 51.2
7,COc1ccccc1N(C)S(=O)(=O)c1ccc(Cl)c(C(=O)NCc2ccco2)c1,47.5
8,Cc1ccsc1/C=N/N1CCOCC1,> 31.5
9,Cc1ccc(NC(=O)CC2(CC(=O)O)CCCC2)cc1,> 41.3
10,Cc1ccc2oc(C(=O)Nc3cc(C)on3)c(C)c2c1,1.2
11,Cc1cc(C)c(S(=O)(=O)c2cc(F)ccc2C)c(Cl)n1,44.6
12,CC(C)CCNC(=O)COc1cccc2c1OC(C)(C)C2,43.4
13,Cc1ccc(NC(=O)c2cccnc2C(=O)Nc2ccc(C)cc2)cc1,1.9
14,Cc1cc(Br)c(NC(=O)COC(=O)C2CCCCC2)c(Br)c1,10.1
15,COc1ccc(CCNC(=O)c2cc(=O)n(C)c(=O)n2C)cc1OC,48.7
16,O=C1N(Cc2ccccc2)c2ccc(Cl)cc2C12OCCO2,9
17,Cc1ccc(NC(=O)CN2C(=O)S/C(=C\c3ccccn3)C2=O)cc1,0.9
18,O=C(Nc1ccc(Cl)cc1)c1ccc(Br)cc1F,< 0.7

row,SMILES,solubility kinetic [µg/mL]
1,Cc1cccc(OCC(=O)Nc2ccncc2)c1,> 36.3
2,COc1ccc(N2C(S)=C(C#N)C(=O)NC23CCCCC3)cc1,19.3
3,N#CCOC(=O)C1c2ccccc2Oc2ccccc21,35.2
4,CC(C)(C)S(=O)(=O)c1ccccc1-c1noc(-c2ccccc2)c1C(N)=O,> 57.7
5,CCc1noc(C)c1C(=O)Nc1ccc(F)c(F)c1F,> 42.6
6,Cc1cccc(C2C3=C(CCCC3=O)N=C3c4ccccc4C(=O)C32)c1 (centres undefined),2.3
7,Cc1ccc(N(CN2C(=O)C3C4CCC(C4)C3C2=O)C(=O)c2ccco2)cc1 (centres undefined),53.9
8,COc1ccc(NC(=O)CN2CCc3ccccc3C2)cc1OC,> 49
9,Cc1ccc(NC(=O)c2nsc(Cl)c2Cl)cc1,< 0.3
10,COc1ccc2c(c1)c1ncn(Cc3ccc(F)cc3)c(=O)c1n2C,2.5
11,COc1cc2ccccc2cc1C(=O)N1CCOCC1,> 40.7
12,COC(=O)c1nc(N)sc1C(C)C,> 30
13,Br.Cc1ccc(C2=CSC3=NCCN23)cc1,43.2
14,CC(NC(N)=O)C(=O)NCC(=O)OCc1ccccc1 (centres undefined),> 41.9
15,COc1ccc(CNC(=O)CN2C(=O)NC(c3ccccc3)(c3ccccc3)C2=O)cc1,4.5
16,Cc1sc2ncnc(SCC(=O)N3CCCC(C(F)(F)F)C3)c2c1C (centres undefined),2.7
17,CSc1ccc(CNCCCSc2ncccn2)cc1.Cl,> 51.3
18,Cc1ccnc(NS(=O)(=O)c2ccccc2)c1,31.3
